Laboratory results published in patent US11850233B2, “Reduced adaptive microbial resistance treatment for flesh eating disease (necrotizing fasciitis)” (priority 2019, dated 2023).
Entries after “also recorded” stand apart in the source; their conditions may differ. Where a name gives a salt, the structure may show the parent alone. Read-outs that look alike come from different tables or passages of the source.

How the values were obtained:
[1] = tested on: E. coli (BL21) bacteria; conditions: cited from earlier work
[2] = tested on: E. coli (BL21) bacteria; experiment: In vitro inhibition of E. coli (BL21) growth on LB agar plates, dark or irradiated; assay type: cell-based
Text: E. coli (BL21) bacteria was used as a model prokaryote to determine the efficacy of the inventive treatment composition to kill bacteria. The effect of inventive composition as well as each individual component of the composition were all tested to determine the effect each on the growth of E. coli bacteria. The procedure described in Herschmann, R. J. et al (2019) “Effect of toxic metal ions on photosensitized singlet oxygen generation for photodegradation of polyaromatic hydrocarbon derivatives and inactivation of Escherichia coli” Photochemistry and Photobiology 86, 890-894, was followed. The bacterial cultures were grown in an incubator in Luria-Broth (LB)—Lennox formulation at 28° C. with shaking at 250 rpm. Once the cells reached the beginning of their exponential growth phase (A600=0.2), one milliliter aliquots were removed and centrifuged. The resulting pellets were washed once with sterile water and then resuspended in 500.0 μL of sterile water. The resuspended bacteria were mixed with 200.0 μL of stock solutions of the components or the multifunctional was selected for testing at 0.3 ppm for all components of the composition. The experimental samples were irradiated in a Rayonet photoreactor for 10 minutes or covered and kept in the dark for 10 minutes. Controls were prepared using 200.0 μL of sterile water were also prepared with one control being irradiated and the other control being kept in the dark. All samples were then briefly vortexed to thoroughly mix samples, and 20.0 μL aliquots of each sample were evenly spread using standard techniques over individual LB agar petri dishes. The plates were inverted and incubated at 28° C. for 48 hours. Results are reported as observed effects of the composition and each component of the composition on the inhibition of the growth of E. coli on the plates.

[3] = Rate of DHN photooxidation under visible light irradiation (absorption at 300 nm); assay type: physicochemical; conditions: Zinc (II) 0.000 ppm, TMPyP 3.67×10^−7 M, DHN 1.2×10^−4 M, aerobic aqueous
Procedure: Quartz cuvettes with 1 cm path-length and 3.0 mL volume were used for all measurements.
For singlet oxygenation experiment, a 3.0 mL solution of DHN (1.2×10^−4 M) and TMPyP (3.67×10^−7 M) was prepared by mixing 36 μL of 1×10^−2 M of DHN standard solution and 1.10 μL of 1×10^−3 M of TMPyP standard solution with ultrapure water at room temperature in an open atmosphere. Singlet oxygenation of sample was conducted in a Rayonet photoreactor for approximately 10 min at 28° C. and the photooxidation of DHN was monitored by recording a decrease in UV-Vis absorption of DHN at 300 nm for 10 min in 2 min intervals.

[4] = tested on: MCF-7 breast cancer cells; experiment: MTS assay of MCF-7 breast cancer cell proliferation, dark or irradiated; assay type: cell-based; conditions: aerobic, 0.3 ppm, after 48 hours
Procedure: For breast cancer cells experiment, a stored sample was taken and incubated for 3 to 5 minutes until room temperature. 5 mL of supplemented medium was placed in a 15 mL centrifuge tube. The contents in the cryotube were transferred into the 15 mL centrifuge tube containing the 5 mL medium. This mixture was centrifuged for 5 minutes at 1000 rpm. The supernatant was removed, and 3 mL of the medium was added to the cells and mixed thoroughly. From this mixture, 1 mL was placed into three separate culture flasks with 11 mL of medium each. These flasks were placed in a humidified atmosphere of 32° C. and 5% CO2. After incubation, cells were rinsed with PBS and aspirated. Cells were washed with trypsin, covered and placed in the incubator for five minutes. Solutions were then mixed with 4 mL of medium and subsequently transferred into a 15 mL centrifuge tube to be centrifuged for 5 minutes at 1000 rpm. The supernatant was then aspirated, and cells were re-suspended in 3-10 mL of medium. From here, 1 mL aliquots of this mixture were placed with 11 mL of medium in a new flask. Lastly, these flasks were placed in humidified atmosphere of 32° C. and 5% CO2. An aliquot of the stock solution (i.e. 9.5 mL) was removed from the stock culture and combined with an appropriate amount of regular medium (i.e. 220.5 mL). After proper mixing the stock with fresh media, 3 mL of the mixture were placed in each of the wells in a 6-well plate. Using the manufacturer's protocol, a MTS assay was performed to assess cell proliferation and toxicity of the multifunctional treatment composition. The concentrations of inventive treatment composition and its individual components were 0.3 ppm, until adjusted. The proliferation(s) of cells were compared to a control of cells alone. The growth the control was standardized as 100% growth and the cell proliferation in the presence of the treatment composition was observed and reported on the bases of percent when compared to the control. Similar procedure was followed for light experiment where samples were irradiated in a Rayonet photoreactor for 10 minutes.

[5] = known value of the standard, prior art; cited from earlier work
[6] = dark, aerobic, 0.3 ppm (Example 1 composition: Zn(II) 0.15 ppm + TMPyP 0.15 ppm), 10 minutes, plates after 48 hours
[7] = visible light irradiation 10 minutes, aerobic, 0.3 ppm (composition: Zn(II) 0.15 ppm + TMPyP 0.15 ppm), plates after 48 hours

## C[n+]1ccc(-c2c3nc(c(-c4cc[n+](C)cc4)c4ccc([nH]4)c(-c4cc[n+](C)cc4)c4nc(c(-c5cc[n+](C)cc5)c5ccc2[nH]5)C=C4)C=C3)cc1.[Cl-].[Cl-].[Cl-].[Cl-] [TMPyP, meso-tetra(N-methyl-4-pyridyl) porphyrin tetrachloride]
[1]; light, aerobic conditions, Khurana et al 2019
  E. coli growth inhibition reported by others: inhibits E. coli growth
[2]
  inhibition of growth of E. coli bacteria: 100%
[3]
  Rate Constant, k of DHN photooxidation: 0.0001601 s⁻¹
[4]; dark
  inhibition of growth of MCF-7 breast cancer cells: almost no inhibition
[4]; visible light irradiation
  inhibition of growth of MCF-7 breast cancer cells: nearly complete inhibition

## [Mn+2] [manganese(II)]
[2]; [6]
  inhibition of growth of E. coli: zero inhibition
[2]; [7]
  inhibition of growth of E. coli: zero inhibition

## meso-tetrakis(N-methyl-4-pyridyl) porphyrin with Zn metal stably bound into the core of porphyrin [ZnTMPyP]
[1]; dark conditions, tests by others or PCT/US2018/024338
  E. coli killing / growth inhibition reported earlier: not effective
[2]; [6]
  inhibition of growth of E. coli: almost no inhibition
[2]; [7]
  inhibition of growth of E. coli: inhibition of growth

## O=C(N[C@H](CO)[C@H](O)c1ccc([N+](=O)[O-])cc1)C(Cl)Cl [chloramphenicol, Chloramphenicol]
[2]; [6]
  inhibition of growth of E. coli: Almost no inhibition

## [Fe+2] [Iron(II)]
[2]; [6]
  inhibition of growth of E. coli: zero inhibition
[2]; [7]
  inhibition of growth of E. coli: zero inhibition

## [Zn+2] [Zn(II) ions, zinc (II) sulfate]
[2]
  inhibition of growth of E. coli: essentially no noticeable inhibition; also recorded: almost no inhibition
[4]; dark
  inhibition of growth of MCF-7 breast cancer cells: no inhibition effect
[4]; visible light irradiation
  inhibition of growth of MCF-7 breast cancer cells: little or no inhibition effect

## CN(C)c1ccc2nc3ccc(=[N+](C)C)cc-3sc2c1 [methylene blue]
[5]
  singlet oxygen quantum yield (ϕΔ): 0.52

## CC1(C)S[C@@H]2[C@H](NC(=O)[C@H](N)c3ccccc3)C(=O)N2[C@H]1C(=O)O [ampicillin, Ampicillin]
[2]; [6]
  inhibition of growth of E. coli: Almost no inhibition

## [Co+2] [cobalt (II)]
[2]
  inhibition of growth of E. coli: zero inhibition
